Source: patent US20220257592A1, “METHODS OF TREATING CANCER” (HOFFMANN-LA ROCHE INC., priority 2019, published 2022)

Assay: Clinical trial safety, ALKA, STARTRK-1, STARTRK-2, STARTRK-NG (interim, N=355)
Details: for Balance disorder / Confusional state / Dizziness / Headache / Paresthesia: CNS metastases
[1] = no prior CNS irradiation (N=48)
[2] = among the 32 patients with hyperuricemic adverse reactions
[3] = among the 36 patients with mood disorders
[4] = among the 51 patients with sleep disturbances
[5] = among the 96 patients with cognitive impairment
[6] = among the 136 patients who experienced dizziness
[7] = clinically relevant adverse reactions in ≤10% of patients
[8] = may be underestimated, 4.5% had no post-treatment liver function tests
[9] = patients with at least one post-baseline ECG assessment
[10] = worsening from baseline, NCI CTCAE v5.0

## CN1CCN(c2ccc(C(=O)Nc3n[nH]c4ccc(Cc5cc(F)cc(F)c5)cc34)c(NC3CCOCC3)c2)CC1 [Entrectinib, N-[5-(3,5-difluorobenzyl)-1H-indazol-3-yl]-4-(4-methyl-piperazin-1-yl)-2-(tetrahydro-pyran-4-ylamino)-benzamide]
12 patients with CHF, range: 11 days to 12 months
  CHF, median time to onset: 2 months
355 patients
  Congestive heart failure: 3.4%
  Congestive heart failure, Grade 3: 2.3%
  Hyperuricemia reported as adverse reactions with symptoms, as well as elevated uric acid levels: 9%
  Increased ALT of any grade: 36%
  Increased AST of any grade: 42%
[1]
  Balance disorder: 4%
  Confusional state: 2%
  Dizziness: 31%
  Headache: 13%
  Paresthesia: 6%
Prior CNS irradiation (N=90)
  Balance disorder: 13%
  Confusional state: 11%
  Dizziness: 38%
  Headache: 21%
  Paresthesia: 20%
N = 355
  Abdominal pain, All Grades: 16%
  Arthralgia, All Grades: 21%
  Ataxia, All Grades: 17%
  Back pain, All Grades: 12%
  Cognitive impairment, All Grades: 27%
  Constipation, All Grades: 46%
  Cough, All Grades: 24%
  Decreased appetite, All Grades: 13%
  Dehydration, All Grades: 10%
  Diarrhea, All Grades: 35%
  Dizziness, All Grades: 38%
  Dysesthesia, All Grades: 34%
  Dysgeusia, All Grades: 44%
  Dyspnea, All Grades: 30%
  Edema, All Grades: 40%
  Fatigue, All Grades: 48%
  Headache, All Grades: 18%
  Hypotension, All Grades: 18%
  Increased weight, All Grades: 25%
  Lung infection, All Grades: 10%
  Mood disorders, All Grades: 10%
  Muscular weakness, All Grades: 12%
  Myalgia, All Grades: 28%
  Nausea, All Grades: 34%
  Pain in extremity, All Grades: 11%
  Peripheral sensory neuropathy, All Grades: 18%
  Pyrexia, All Grades: 21%
  Rash, All Grades: 11%
  Sleep (sleep disturbances), All Grades: 14%
  Urinary tract infection, All Grades: 13%
  Vision disorders, All Grades: 21%
  Vomiting, All Grades: 24%
N = 355, Grades 3-5
  Abdominal pain, Grade ≥3: 0.6%
  Arthralgia, Grade ≥3: 0.6%
  Ataxia, Grade ≥3: 0.8%
  Back pain, Grade ≥3: 1%
  Cognitive impairment, Grade ≥3: 4.5%
  Constipation, Grade ≥3: 0.6%
  Cough, Grade ≥3: 0.3%
  Decreased appetite, Grade ≥3: 0.3%
  Dehydration, Grade ≥3: 1.1%
  Diarrhea, Grade ≥3: 2.0%
  Dizziness, Grade ≥3: 0.8%
  Dysesthesia, Grade ≥3: 0.3%
  Dysgeusia, Grade ≥3: 0.3%
  Edema, Grade ≥3: 1.1%
  Fatigue, Grade ≥3: 5%
  Headache, Grade ≥3: 0.3%
  Hypotension, Grade ≥3: 2.8%
  Increased weight, Grade ≥3: 7%
  Mood disorders, Grade ≥3: 0.6%
  Muscular weakness, Grade ≥3: 0.8%
  Myalgia, Grade ≥3: 1.1%
  Nausea, Grade ≥3: 0.3%
  Pain in extremity, Grade ≥3: 0.3%
  Peripheral sensory neuropathy, Grade ≥3: 1.1%
  Pyrexia, Grade ≥3: 0.8%
  Rash, Grade ≥3: 0.8%
  Sleep (sleep disturbances), Grade ≥3: 0.6%
  Urinary tract infection, Grade ≥3: 2.3%
  Vision disorders, Grade ≥3: 0.8%
  Vomiting, Grade ≥3: 0.8%
Among the 12 patients with CHF
  CHF resolved following interruption or discontinuation and medical management: 50%
  entrectinib discontinued due to CHF: 17%
  entrectinib interrupted due to CHF: 50%
[2]
  Dose interruption due to hyperuricemia: 6%
  Dose reduction due to hyperuricemia: 6%
  Required urate-lowering medication: 34%
[3]
  Discontinuation due to mood disorders: no patients discontinued
  Dose interruption due to mood disorders: 6%
  Dose reduction due to mood disorders: 6%
[4]
  Discontinuation due to sleep disturbances: no patients discontinued
  Dose reduction due to sleep disturbances: 6%
[5]
  Discontinued entrectinib due to cognitive adverse reactions: 1%
  Dose interruption due to cognitive adverse reactions: 18%
  Dose reduction due to cognitive adverse reactions: 13%
[6]
  Discontinued entrectinib due to dizziness: 0.7%
  Dose interruption due to dizziness: 7%
  Dose reduction due to dizziness: Ten
  Grade 3 dizziness: 2.2%
[7]
  Dysphagia: 10%
  Fall: 8%
  Fractures: 6%
  Hypoxia: 4.2%
  Pleural effusion: 8%
  Pulmonary embolism: 3.9%
  QT prolongation: 3.1%
  Syncope: 3.9%
First value of 'respectively'
  Increased AST or ALT leading to dose interruptions: 0.8%
human, in vivo
  Cognitive impairment: amnesia: 2.5%
  Cognitive impairment: aphasia: 2.3%
  Cognitive impairment: cognitive disorders: 8%
  Cognitive impairment: confusional state: 7%
  Cognitive impairment: delirium: 0.8%
  Cognitive impairment: disturbance in attention: 4.8%
  Cognitive impairment: hallucinations: 1.1%
  Cognitive impairment: memory impairment: 3.7%
  Cognitive impairment: mental status changes: 2%
  Discontinuation due to hyperuricemia: No patients discontinued
  Dose interruption due to anemia: 3.1%
  Dose interruption due to cognitive disorder: 2%
  Dose interruption due to diarrhea: 2.8%
  Dose interruption due to dizziness: 2.5%
  Dose interruption due to dyspnea: 2.3%
  Dose interruption due to fatigue: 3.7%
  Dose interruption due to increased blood creatinine: 4%
  Dose interruption due to nausea: 2.3%
  Dose interruption due to neutropenia: 2%
  Dose interruption due to pneumonia: 2.3%
  Dose interruption due to pyrexia: 2.8%
  Dose interruptions due to adverse reactions: 46%
  Dose reduction due to anemia: 1.7%
  Dose reduction due to dizziness: 3.9%
  Dose reduction due to fatigue: 2.3%
  Dose reduction due to increased blood creatinine: 3.1%
  Dose reduction due to increased weight: 1.4%
  Dose reductions due to adverse reactions: 29%
  Entrectinib discontinued due to increased AST or ALT: 0.8%
  Grade 3 cognitive adverse reactions: 4.5%
  Grade 3 mood disorders: 0.6%
  Grade 3 or 4 adverse reactions: 60%
  Grade 3 or 4 cognitive disorders: 4.5%
  Grade 3 or 4 diarrhea: 2%
  Grade 3 or 4 dyspnea: 6%
  Grade 3 or 4 fatigue/asthenia: 5%
  Grade 3 or 4 hypotension: 2.8%
  Grade 3 or 4 hypoxia: 3.4%
  Grade 3 or 4 increased weight: 7%
  Grade 3 or 4 lung infection: 5%
  Grade 3 or 4 pleural effusion: 3.1%
  Grade 3 or 4 pulmonary embolism: 3.4%
  Grade 3 or 4 syncope: 2.5%
  Grade 3 or 4 urinary tract infection: 2.5%
  Grade 3 sleep disturbances: 0.6%
  Hyperuricemia resolved following urate-lowering medication without interruption or dose reduction: 73%
  Incidence of CNS adverse reactions in patients with and without CNS metastases: similar
  Mood disorders: agitation: 2%
  Mood disorders: anxiety: 4.8%
  Mood disorders: depression: 2.8%
  Most common adverse reactions (≥20%): fatigue, constipation, dysgeusia, edema, dizziness, diarrhea, nausea, dysesthesia, dyspnea, myalgia, cognitive impairment, increased weight, cough, vomiting, pyrexia, arthralgia and vision disorders
  Myocarditis in the absence of CHF: 0.3%
  Permanent discontinuation due to an adverse reaction: 9%
  Permanent discontinuation due to cardio-respiratory arrest: < 1%
  Permanent discontinuation due to dyspnea: < 1%
  Permanent discontinuation due to fatigue: < 1%
  Permanent discontinuation due to pneumonia: < 1%
  Serious adverse reaction: dyspnea: 3.7%
  Serious adverse reaction: pleural effusion: 3.4%
  Serious adverse reaction: pneumonia: 3.9%
  Serious adverse reaction: pulmonary embolism: 2.3%
  Serious adverse reaction: pyrexia: 2%
  Serious adverse reaction: respiratory failure: 2%
  Serious adverse reaction: sepsis: 2.5%
  Serious adverse reactions: 39%
  Sleep disturbances: hypersomnia: 1.1%
  Sleep disturbances: insomnia: 7%
  Sleep disturbances: sleep disorder: 0.3%
  Sleep disturbances: somnolence: 7%
  Vision changes, Grade 1: 82%
  Vision changes, Grade 2: 14%
  Vision changes, Grade 3: 0.8%
  Vision disorders: blurred vision: 8.7%
  Vision disorders: cataract: 1.1%
  Vision disorders: diplopia: 3.1%
  Vision disorders: photophobia: 5.1%
  Vision disorders: photopsia: 1.3%
  Vision disorders: visual impairment: 2%
  Vision disorders: vitreous floaters: 1.1%
Including one patient who died due to tumor lysis syndrome
  Grade 4 hyperuricemia: 1.7%
[8]
  Grade 3-4 increased ALT: 2.8%
  Grade 3-4 increased AST: 2.5%
Of the 96 patients with cognitive impairment
  Cognitive impairment symptoms occurred within 3 months of starting entrectinib: 77%
[9]
  QTcF interval >500 ms: 0.6%
  QTcF interval prolongation of >60 ms after starting entrectinib: 3.1%
range: 1 day to 9 months
  Mood disorders, median time to onset: 1 month
range: 1 day to 9.2 months
  Increased ALT, median time to onset: 2 weeks
range: 1 day to 29.5 months
  Increased AST, median time to onset: 2 weeks
Reported 11 days after treatment had ended
  Completed suicide: One
Resolved after discontinuation and high-dose corticosteroids
  Grade 4 myocarditis after one dose of entrectinib: One
Second value of 'respectively'
  Increased AST or ALT leading to dose reductions: 0.8%
Worsening from baseline
  Laboratory: Anemia, All Grades: 67%
  Laboratory: Anemia, Grade 3 or 4: 9%
  Laboratory: Hyperkalemia, All Grades: 25%
  Laboratory: Hyperkalemia, Grade 3 or 4: 1.5%
  Laboratory: Hypernatremia, All Grades: 35%
  Laboratory: Hypernatremia, Grade 3 or 4: 0.9%
  Laboratory: Hyperuricemia, All Grades: 52%
  Laboratory: Hyperuricemia, Grade 3 or 4: 10%
  Laboratory: Hypoalbuminemia, All Grades: 28%
  Laboratory: Hypoalbuminemia, Grade 3 or 4: 2.9%
  Laboratory: Hypocalcemia, All Grades: 34%
  Laboratory: Hypocalcemia, Grade 3 or 4: 1.8%
  Laboratory: Hypophosphatemia, All Grades: 30%
  Laboratory: Hypophosphatemia, Grade 3 or 4: 7%
  Laboratory: Increased ALT, All Grades: 38%
  Laboratory: Increased ALT, Grade 3 or 4: 2.9%
  Laboratory: Increased AST, All Grades: 44%
  Laboratory: Increased AST, Grade 3 or 4: 2.7%
  Laboratory: Increased alkaline phosphatase, All Grades: 25%
  Laboratory: Increased alkaline phosphatase, Grade 3 or 4: 0.9%
  Laboratory: Increased amylase, All Grades: 26%
  Laboratory: Increased amylase, Grade 3 or 4: 5.4%
  Laboratory: Increased lipase, All Grades: 28%
  Laboratory: Increased lipase, Grade 3 or 4: 10%
  Laboratory: Lymphopenia, All Grades: 40%
  Laboratory: Lymphopenia, Grade 3 or 4: 12%
  Laboratory: Neutropenia, All Grades: 28%
  Laboratory: Neutropenia, Grade 3 or 4: 7%
[10]
  Laboratory: Hyperglycemia, Grade 3 or 4: 3.8%
  Laboratory: Increased creatinine, All Grades: 73%
  Laboratory: Increased creatinine, Grade 3 or 4: 2.1%
